These results are taken from US20250002507A1, “7,8-DIHYDRO-5H-1,6-NAPHTHYRIDINE DERIVATIVES AS POSITIVE ALLOSTERIC MODULATORS OF THE MUSCARINIC ACETYLCHOLINE RECEPTOR M4 FOR TREATING NEUROLOGICAL AND PSYCHIATRIC DISORDERS” (Vanderbilt University, priority 2021, published 2025).

This experiment concerns the target T1, Human M4 (Homo sapiens, UniProt P08173).
T1 construct: expressed in transfected cells
T1 sequence (P08173 1-479): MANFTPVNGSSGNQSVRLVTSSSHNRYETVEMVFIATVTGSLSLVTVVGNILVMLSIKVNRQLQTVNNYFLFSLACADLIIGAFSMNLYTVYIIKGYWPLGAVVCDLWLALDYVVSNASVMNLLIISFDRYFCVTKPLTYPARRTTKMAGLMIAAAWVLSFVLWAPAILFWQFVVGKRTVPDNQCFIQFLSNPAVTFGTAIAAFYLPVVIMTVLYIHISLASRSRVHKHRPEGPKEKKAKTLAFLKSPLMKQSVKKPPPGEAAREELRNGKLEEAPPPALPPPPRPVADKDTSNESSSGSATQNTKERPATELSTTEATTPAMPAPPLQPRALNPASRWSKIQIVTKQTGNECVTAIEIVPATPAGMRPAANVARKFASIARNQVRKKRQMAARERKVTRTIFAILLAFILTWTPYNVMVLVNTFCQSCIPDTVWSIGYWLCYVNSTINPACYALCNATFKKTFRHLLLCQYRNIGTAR
The experiment is described as follows: mAChR M4 cell-based functional assay (calcium flux, potentiation of EC20 acetylcholine response), hM4-Gqi5 CHO-K1 cells. The following applies: for Emax at 30 µM: % ACh maximum at 30 μM, human M4, read-out: Emax; for EC50: hM4-Gqi5 CHO-K1 cells, calcium flux, PAM of EC20 acetylcholine, read-out: Human M4 EC50. On the procedure:
Human and rat M4 cDNAs, along with the chimeric G protein Gqi5, were transfected into Chinese hamster ovary (CHO-K1) cells purchased from the American Type Culture Collection using Lipofectamine2000. hM4-Gqi5 cells were grown in Ham's F-12 medium containing 10% heat-inactivated fetal bovine serum (FBS), 20 mM HEPES, 50 μg/mL G418 sulfate, and 500 μg/mL Hygromycin B. rM4-Gqi5 cells were grown in DMEM containing 10% heat-inactivated FBS, 20 mM HEPES, 400 μg/mL G418 sulfate, and 500 μg/mL Hygromycin B.
For high throughput measurement of agonist-evoked increases in intracellular calcium, CHO-K1 cells stably expressing muscarinic receptors were plated in growth medium lacking G418 and hygromycin at 15,000 cells/20 μL/well in Greiner 384-well black-walled, tissue culture (TC)-treated, clear-bottom plates (VWR). Cells were incubated overnight at 37° C. and 5% CO2. The next day, cells were washed using an ELX 405 (BioTek) with assay buffer; the final volume was then aspirated to 20 μL. Next, 20 μL of a 2.3 μM stock of Fluo-4/acetoxymethyl ester (Invitrogen, Carlsbad, CA), prepared as a 2.3 mM stock in DMSO and mixed in a 1:1 ratio with 10% (w/v) Pluronic F-127 and diluted in assay buffer, was added to the wells and the cell plates were incubated for 50 min at 37° C. and 5% CO2. Dye was removed by washing with the ELX 405 and the final volume was aspirated to 20 μL. Compound master plates were formatted in an 11 point concentration-response curve (CRC) format (1:3 dilutions) in 100% DMSO with a starting concentration of 10 mM using a BRAVO liquid handler (Agilent). Test compound CRCs were then transferred to daughter plates (240 nL) using the Echo acoustic plate reformatter (Labcyte, Sunnyvale, CA) and then diluted into assay buffer (40 μL) to a 2× stock using a Thermo Fisher Combi (Thermo Fisher Scientific, Waltham, MA).
Calcium flux was measured using the Functional Drug Screening System (FDSS) 6000 or 7000 (Hamamatsu Corporation, Tokyo, Japan) as an increase in the fluorescent static ratio. Compounds were applied to cells (20 μL, 2×) using the automated system of the FDSS at 2-4 seconds into the protocol and the data were collected at 1 Hz. At 144 seconds, 10 μL of an EC20 concentration of the muscarinic receptor agonist acetylcholine was added (5×), followed by the addition of 12 μL of an EC80 concentration of acetylcholine at the 230 second time point (5×). Agonist activity was analyzed as a concentration-dependent increase in calcium mobilization upon compound addition. Positive allosteric modulator activity was analyzed as a concentration-dependent increase in the EC20 acetylcholine response. Antagonist activity was analyzed as a concentration-dependent decrease in the EC80 acetylcholine response. Concentration-response curves were generated using a four-parameter logistical equation in XLFit curve fitting software (IDBS, Bridgewater, NJ) for Excel (Microsoft, Redmond, WA) or Prism (GraphPad Software, Inc., San Diego, CA).
Compounds were synthesized as described above. Activity (EC50 and Emax) was determined in the mAChR M4 cell-based functional assay as described above and the data are shown in Tables 2-4. The compound number corresponds to the compound numbers used in Table 1.
Background: A change in cytosolic calcium serves as a functional read-out for many receptors and channels.

Broadly, the Emax is the greatest response seen or fitted, relative to the assay's reference. A word on the EC50: it is the midpoint of the concentration-response curve.

On to `Cc1nn(C)cc1-c1cnc2c(c1)CN(c1nn3cnnc3c(C)c1C)CC2` [Compound 22, 3-(1,3-dimethylpyrazol-4-yl)-6-(7,8-dimethyl-[1,2,4]triazolo[4,3-b]pyridazin-6-yl)-7,8-dihydro-5H-1,6-naphthyridine], for which the EC50 came to 146 nM. The Emax at 30 µM (CHO-K1) is 93%.

For `Cc1nn(C)c(C)c1-c1cnc2c(c1)CN(c1nn3cnnc3c(C)c1C)CC2` [Compound 23, 6-(7,8-dimethyl-[1,2,4]triazolo[4,3-b]pyridazin-6-yl)-3-(1,3,5-trimethylpyrazol-4-yl)-7,8-dihydro-5H-1,6-naphthyridine], the EC50 is 149 nM. Moreover, for the setting “CHO-K1”, the Emax at 30 µM is 94%. As to `Cc1c(N2CCc3ncc(-c4cnn(Cc5ccccn5)c4)cc3C2)nn2cnnc2c1C` [Compound 24, 6-(7,8-dimethyl-[1,2,4]triazolo[4,3-b]pyridazin-6-yl)-3-[1-(2-pyridylmethyl)pyrazol-4-yl]-7,8-dihydro-5H-1,6-naphthyridine], under “CHO-K1”, the Emax at 30 µM was found to be 94%. As to `Cc1c(N2CCc3ncc(N4CCC5OCCCC5C4)cc3C2)nn2cnnc2c1C` (stereo not drawn) [Compound 25, 6-[6-(7,8-dimethyl-[1,2,4]triazolo[4,3-b]pyridazin-6-yl)-7,8-dihydro-5H-1,6-naphthyridin-3-yl]-2,3,4,4a,5,7,8,8a-octahydropyrano[3,2-c]pyridine], the EC50 amounted to 348 nM. For the same compound, the Emax at 30 µM (CHO-K1) was 65%. On the same counts, the results for `Cc1c(N2CCc3ncc(NCC4CCCO4)cc3C2)nn2cnnc2c1C` (stereo not drawn) [Compound 26, 6-(7,8-dimethyl-[1,2,4]triazolo[4,3-b]pyridazin-6-yl)-N-(tetrahydrofuran-2-ylmethyl)-7,8-dihydro-5H-1,6-naphthyridin-3-amine] are 737 nM and 75%. Turning to `COc1ccc(Nc2cnc3c(c2)CN(c2nn4cnnc4c(C)c2C)CC3)c(F)c1F` [Compound 27, N-(2,3-difluoro-4-methoxy-phenyl)-6-(7,8-dimethyl-[1,2,4]triazolo[4,3-b]pyridazin-6-yl)-7,8-dihydro-5H-1,6-naphthyridin-3-amine], the EC50 turned out to be 597 nM. The Emax at 30 µM (CHO-K1) came out at 77%. On the same counts, the results for `COc1ccc(Nc2cnc3c(c2)CN(c2nn4cnnc4c(C)c2C)CC3)c(F)c1` [Compound 28, 6-(7,8-dimethyl-[1,2,4]triazolo[4,3-b]pyridazin-6-yl)-N-(2-fluoro-4-methoxy-phenyl)-7,8-dihydro-5H-1,6-naphthyridin-3-amine] are 231 nM and 93%.

In the case of `Cc1c(N2CCc3ncc(Nc4c(F)ccc(Cl)c4F)cc3C2)nn2cnnc2c1C` [Compound 29, N-(3-chloro-2,6-difluoro-phenyl)-6-(7,8-dimethyl-[1,2,4]triazolo[4,3-b]pyridazin-6-yl)-7,8-dihydro-5H-1,6-naphthyridin-3-amine], the EC50 came out at 443 nM. Further, where the note is “CHO-K1”, the Emax at 30 µM was 87%. As for `Cc1c(N2CCc3ncc(Nc4cc(F)cc(F)c4F)cc3C2)nn2cnnc2c1C` [Compound 30, 6-(7,8-dimethyl-[1,2,4]triazolo[4,3-b]pyridazin-6-yl)-N-(2,3,5-trifluorophenyl)-7,8-dihydro-5H-1,6-naphthyridin-3-amine], the EC50 turned out to be 120 nM. Moreover, the Emax at 30 µM (CHO-K1) worked out at 94%. On the same counts, the results for `COc1cc(F)c(Nc2cnc3c(c2)CN(c2nn4cnnc4c(C)c2C)CC3)c(F)c1` [Compound 31, N-(2,6-difluoro-4-methoxy-phenyl)-6-(7,8-dimethyl-[1,2,4]triazolo[4,3-b]pyridazin-6-yl)-7,8-dihydro-5H-1,6-naphthyridin-3-amine] are 455 nM and 88%. On to `Cc1c(N2CCc3ncc(Nc4cc(F)ccc4F)cc3C2)nn2cnnc2c1C` [Compound 32, N-(2,5-difluorophenyl)-6-(7,8-dimethyl-[1,2,4]triazolo[4,3-b]pyridazin-6-yl)-7,8-dihydro-5H-1,6-naphthyridin-3-amine], for which the EC50 was found to be 84.8 nM. Moreover, for the setting “CHO-K1”, the Emax at 30 µM was 102%. In the case of `Cc1c(N2CCc3ncc(Nc4ccccc4F)cc3C2)nn2cnnc2c1C` [Compound 33, 6-(7,8-Dimethyl-[1,2,4]triazolo[4,3-b]pyridazin-6-yl)-N-(2-fluorophenyl)-5,6,7,8-tetrahydro-1,6-naphthyridin-3-amine], the EC50 was found to be 161 nM. Moreover, for the setting “CHO-K1”, the Emax came out at 94%. As to `Cc1c(N2CCc3ncc(Nc4cc(Cl)ccc4F)cc3C2)nn2cnnc2c1C` [Compound 34, N-(5-chloro-2-fluoro-phenyl)-6-(7,8-dimethyl-[1,2,4]triazolo[4,3-b]pyridazin-6-yl)-7,8-dihydro-5H-1,6-naphthyridin-3-amine], the EC50 turned out to be 562 nM. The Emax at 30 µM (CHO-K1) amounted to 93%. On the same counts, the results for `Cc1cc(-c2cnc3c(c2)CN(c2nn4cnnc4c(C)c2C)CC3)cc(Cl)n1` [Compound 35, 3-(2-chloro-6-methyl-4-pyridyl)-6-(7,8-dimethyl-[1,2,4]triazolo[4,3-b]pyridazin-6-yl)-7,8-dihydro-5H-1,6-naphthyridine] are 1900 nM and 78%. With `Cc1c(N2CCc3ncc(-c4ccc(C(F)(F)F)nc4)cc3C2)nn2cnnc2c1C` [Compound 36, 6-(7,8-dimethyl-[1,2,4]triazolo[4,3-b]pyridazin-6-yl)-3-[6-(trifluoromethyl)-3-pyridyl]-7,8-dihydro-5H-1,6-naphthyridine], the EC50 worked out at 295 nM. In addition, where the note is “CHO-K1”, the Emax at 30 µM was 85%. On the same counts, the results for `Cc1ncc(-c2cnc3c(c2)CN(c2nn4cnnc4c(C)c2C)CC3)cn1` [Compound 37, 6-(7,8-dimethyl-[1,2,4]triazolo[4,3-b]pyridazin-6-yl)-3-(2-methylpyrimidin-5-yl)-7,8-dihydro-5H-1,6-naphthyridine] are 2280 nM and 59%. On the same counts, the results for `Cc1c(N2CCc3ncc(-c4ccc(C5CC5)nc4)cc3C2)nn2cnnc2c1C` [Compound 38, 3-(6-cyclopropyl-3-pyridyl)-6-(7,8-dimethyl-[1,2,4]triazolo[4,3-b]pyridazin-6-yl)-7,8-dihydro-5H-1,6-naphthyridine] are 149 nM and 90%. On the same counts, the results for `Cc1ccc(-c2cnc3c(c2)CN(c2nn4cnnc4c(C)c2C)CC3)cn1` [Compound 39, 6-(7,8-dimethyl-[1,2,4]triazolo[4,3-b]pyridazin-6-yl)-3-(6-methyl-3-pyridyl)-7,8-dihydro-5H-1,6-naphthyridine] are 115 nM and 95%. Regarding `Cc1c(N2CCc3ncc(-c4cncc(C#N)c4)cc3C2)nn2cnnc2c1C` [Compound 40, 5-[6-(7,8-dimethyl-[1,2,4]triazolo[4,3-b]pyridazin-6-yl)-7,8-dihydro-5H-1,6-naphthyridin-3-yl]pyridine-3-carbonitrile], the EC50 came out at 716 nM. For the same compound, the Emax at 30 µM (CHO-K1) turned out to be 69%. On the same counts, the results for `COc1ccncc1-c1cnc2c(c1)CN(c1nn3cnnc3c(C)c1C)CC2` [Compound 41, 6-(7,8-dimethyl-[1,2,4]triazolo[4,3-b]pyridazin-6-yl)-3-(4-methoxy-3-pyridyl)-7,8-dihydro-5H-1,6-naphthyridine] are 442 nM and 81%.
